System: 20-HETE synthase originated from rat kidney microsome
Experiment: Inhibitory effect of 20-HETE synthase originated from rat kidney microsome
Format: biochemical
Conditions: for Inhibition rate (1 μM): 20-HETE production without compound set to 100%; for IC50: concentration at which production of 20-HETE was inhibited to 50%
Method: Experimental Example [Inhibitory effect of 20-HETE synthase originated from rat kidney microsome]
Regarding the compounds listed in Table 1, their inhibitory activity to production of 20-HETE was examined.
The subject compound for this examination was added to a buffer comprising 50 mM of 3-morpholinopropane sulfonic acid (pH7.4), 5 mM of magnesium chloride and 1 mM of ethylenediaminetetraacetic acid (EDTA) disodium salt.
After that, the rat kidney microsome (microsome fraction prepared from the kidney of a spontaneous hypertension rat (male, 6 weeks of age)) as an enzyme, [5,6,8,9,11,12,14,15] tritium-arachidonic acid (supplied by Amasham) as a substrate, and NADPH (supplied by Sigma) as a coenzyme were added and reacted for 1.5 hours at 37° C.
After the reaction, formic acid was added to stop the reaction, and then acetonitrile (final concentration of 50%) was added and left for 1.5 hours at room temperature.
The activity of 20-HETE synthase was measured by using a high performance liquid chromatograph having a detector for radioactive substances (supplied by Gilson), and equipped with a C18 reversed phase column (Biocyl C18, supplied by Bio-rad).

[1] = 1 μM of the subject compound added, rat kidney microsome
[2] = 1 μM of subject compound, rat kidney microsome

Structure (SMILES) | Inhibition rate (1 μM) [1] | Inhibition rate (1 μM) [2] | further results
COC(=O)c1ccc(N/C=N/O)cc1 [Comp. 123, N-(4-methoxycarbonylphenyl)-N′-hydroxyformamidine] | 92.7 | – | –
CCCCSc1ccc(N/C=N/O)cc1 [Comp. 442] | – | – | Inhibition rate (1 μM) (1 μM of the subject compound): 95.7
COc1ccc(Oc2ccc(C(F)(F)F)cc2N/C=N/O)cc1 [Comp. 156] | 39.4 | – | –
CC(C)=CCCC(C)CCOc1ccc(N/C=N/O)cc1 (stereo not drawn) [Comp. 380] | – | 118.9 | –
COC(=O)CSc1ccc(N/C=N/O)cc1 [Comp. 446] | – | – | Inhibition rate (1 μM) (1 μM of the subject compound): 95.9
CCN(CC)CCSc1ccc(N/C=N/O)cc1 [Comp. 454] | – | – | Inhibition rate (1 μM) (1 μM of the subject compound): 105.8
Cc1cccc(N/C=N/O)c1 [Comp. 62] | 69.5 | – | –
Cc1ccc(COc2ccc(N/C=N/O)cc2)cc1 [Comp. 383] | – | 116.2 | –
CSCc1cccc(C(F)(F)F)c1N/C=N/O [Comp. 149] | 36.5 | – | –
O/N=C/Nc1ccc(OCC2CCCCCC2)cc1 [Comp. 370] | – | 113.7 | –
O/N=C/Nc1ccccc1F [Comp. 79] | 35.3 | – | –
O/N=C/Nc1ccc(SCCc2ccccc2)cc1 [Comp. 458] | – | – | Inhibition rate (1 μM) (1 μM of the subject compound): 116.0
O=C(Nc1ccccc1)c1ccccc1N/C=N/O [Comp. 278] | – | 65.3 | –
CC(=O)Nc1ccc(N/C=N/O)cc1C(F)(F)F [Comp. 150] | 34.1 | – | –
O/N=C/Nc1ccc(OCc2ccccc2CCc2ccccc2)cc1 [Comp. 386] | – | 105.2 | –
OCCCCCOc1ccc(N/C=N/O)cc1 [Comp. 427] | – | – | IC50: 2.6 nM
CCOc1ccc(N/C=N/O)c([N+](=O)[O-])c1 [Comp. 94] | 41.2 | – | –
O/N=C/Nc1ccc(Br)cc1C(F)(F)F [Comp. 77] | 49.0 | – | –
CC(C)CCCOc1ccc(N/C=N/O)cc1 [Comp. 327] | – | 110.1 | –
Cc1ccc(N/C=N/O)c(C)c1 [Comp. 22] | 95.7 | – | –
CSc1cccc(N/C=N/O)c1 [Comp. 162] | 62.6 | – | –
COc1ccc(CCCOc2ccc(N/C=N/O)cc2)cc1OC [Comp. 374] | – | 119.1 | –
COc1ccccc1CCOc1ccc(N/C=N/O)cc1 [Comp. 379] | – | 105.4 | –
COc1ccc(N/C=N/O)cc1Cl [Comp. 101] | 52.4 | – | –
COc1cc2c(cc1N/C=N/O)oc1ccccc12 [Comp. 277] | – | 76.4 | –

Structure (SMILES) | Inhibition rate (1 μM) [1] | Inhibition rate (1 μM) [2] | further results
CCN(CC)CCOc1ccc(N/C=N/O)cc1 [Comp. 351] | – | 89 | –
O/N=C/Nc1ccc(C(O)(C(F)(F)F)C(F)(F)F)cc1 [Comp. 105] | 46.7 | – | –
CCCCCCCSc1ccc(N/C=N/O)cc1 [Comp. 452] | – | – | Inhibition rate (1 μM) (1 μM of the subject compound): 112.3
COc1cccc(N/C=N/O)c1 [Comp. 65] | 59.3 | – | –
O=S(=O)(CCSc1ccccc1N/C=N/O)c1ccc(Cl)cc1 [Comp. 315] | – | 50.7 | –
CN(C)c1ccc(/C=C/c2ccc(N/C=N/O)cc2)cc1 [Comp. 282] | – | 122.9 | –
O=[N+]([O-])c1ccc(Sc2ccc(N/C=N/O)cc2)cc1 [Comp. 223] | – | 52.2 | –
O=c1ccc2cc(N/C=N/O)ccc2o1 [Comp. 304] | – | 68.5 | –
O/N=C/Nc1ccc(SC2CCCCC2)cc1 [Comp. 438] | – | – | Inhibition rate (1 μM) (1 μM of the subject compound): 87.9
CC(C)COC(=O)c1ccc(N/C=N/O)cc1 [Comp. 189] | 116.8 | – | –
O/N=C/Nc1c(Br)cc(C2CCCCC2)cc1Br [Comp. 102] | 44.4 | – | –
O/N=C/Nc1ccc(OCCOc2ccccc2)cc1 [Comp. 418] | – | – | Inhibition rate (1 μM) (1 μM of the subject compound): 120.4
COC(=O)CCSc1ccc(N/C=N/O)cc1 [Comp. 455] | – | – | Inhibition rate (1 μM) (1 μM of the subject compound): 105.6
COc1cc(N/C=N/O)cc(OC)c1 [Comp. 76] | 35.1 | – | –
O/N=C/Nc1c(F)cc(Br)cc1Br [Comp. 210] | – | 78 | –
O/N=C/Nc1ccc(OCCN2CCCCC2)cc1 [Comp. 357] | – | 98 | –
O/N=C/Nc1ccc(OCCc2cccc(Br)c2)cc1 [Comp. 376] | – | 114.9 | –
COC(=O)c1ccc(OC)c(N/C=N/O)c1 [Comp. 190] | 44.9 | – | –
COc1ccc(N/C=N/O)c(OC)c1 [Comp. 198] | – | 81.8 | –
COC(=O)c1ccc(COc2ccc(N/C=N/O)cc2)cc1 [Comp. 396] | – | 102.7 | –
COc1cc(C#N)c(N/C=N/O)cc1OC [Comp. 196] | 46.9 | – | –
CCC1(c2ccc(N/C=N/O)cc2)CCC(=O)NC1=O (stereo not drawn) [Comp. 245] | – | 55.4 | –
CCc1cccc(C(C)C)c1N/C=N/O [Comp. 163] | 40.0 | – | –
Cc1ccc(N/C=N/O)c([N+](=O)[O-])c1 [Comp. 143] | 37.3 | – | –
O=C(OC/C=C/c1ccccc1)c1ccccc1N/C=N/O [Comp. 138] | 44.0 | – | –

Structure (SMILES) | Inhibition rate (1 μM) [1] | Inhibition rate (1 μM) [2] | further results
CCCc1cccc(N/C=N/O)c1 [Comp. 179] | 63.5 | – | –
O/N=C/Nc1ccc(SCc2ccc(Cl)cc2)cc1 [Comp. 437] | – | – | Inhibition rate (1 μM) (1 μM of the subject compound): 96.1
COc1ccc(C)c(N/C=N/O)c1 [Comp. 104] | 31.9 | – | –
O/N=C/Nc1ccccc1OC(F)F [Comp. 153] | 39.4 | – | –
N#CC(c1ccccc1)c1ccc(N/C=N/O)cc1 (stereo not drawn) [Comp. 283] | – | 62.6 | –
Cc1ccc(CO)cc1N/C=N/O [Comp. 214] | – | 31.9 | –
CCCCCCSc1ccc(N/C=N/O)cc1 [Comp. 451] | – | – | Inhibition rate (1 μM) (1 μM of the subject compound): 97.6
O/N=C/Nc1ccc(OCCCCc2ccccc2)cc1 [Comp. 381] | – | 116.0 | –
CCCCCCCCCSc1ccc(N/C=N/O)cc1 [Comp. 453] | – | – | Inhibition rate (1 μM) (1 μM of the subject compound): 95.3
CCN(CCOc1ccc(N/C=N/O)cc1)c1cccc(C)c1 [Comp. 405] | – | – | Inhibition rate (1 μM) (1 μM of the subject compound): 116.0
Cc1cccc(N/C=N/O)c1C [Comp. 63] | 49.3 | – | –
O/N=C/Nc1ccc(SC2CCCC2)cc1 [Comp. 447] | – | – | Inhibition rate (1 μM) (1 μM of the subject compound): 95.9
O/N=C/Nc1cccc(Cl)c1Cl [Comp. 81] | 51.3 | – | –
Cc1cc(C)c(N/C=N/O)c([N+](=O)[O-])c1 [Comp. 95] | 44.5 | – | –
O/N=C/Nc1ccc(OCCSc2ccccc2)cc1 [Comp. 419] | – | – | Inhibition rate (1 μM) (1 μM of the subject compound): 116.1
O/N=C/Nc1ccc(SC(F)(F)F)cc1 [Comp. 224] | – | 47.1 | –
CNS(=O)(=O)Cc1ccc(N/C=N/O)cc1 [Comp. 259] | – | 52.8 | –
COc1ccc(CCCOc2ccc(N/C=N/O)cc2)cc1 [Comp. 375] | – | 117.7 | –
O/N=C/Nc1ccc(Br)cc1Cl [Comp. 35] | 95.4 | – | IC50 (rat kidney microsome): 86.5 nM
O/N=C/Nc1ccc2ncccc2c1 [Comp. 297] | – | 71.1 | –
COc1ccc(/C=C/c2ccc(N/C=N/O)cc2)cc1 [Comp. 228] | – | 72.0 | –
COc1ccccc1N/C=N/O [Comp. 59] | 49.0 | – | –
Cc1ccc(CCOc2ccc(N/C=N/O)cc2)cc1 [Comp. 372] | – | 100.5 | –
CCCc1ccccc1N/C=N/O [Comp. 71] | 42.5 | – | –
Cn1c(=O)c2c(ncn2CCOc2ccc(N/C=N/O)cc2)n(C)c1=O [Comp. 406] | – | – | Inhibition rate (1 μM) (1 μM of the subject compound): 73.7

Structure (SMILES) | Inhibition rate (1 μM) [1] | Inhibition rate (1 μM) [2] | further results
O/N=C/Nc1ccccc1 [Comp. 135] | 49.3 | – | –
CCCCN(CCCC)CCCOC(=O)c1ccc(N/C=N/O)cc1 [Comp. 281] | – | 50.9 | –
N#Cc1ccc(N/C=N/O)cc1 [Comp. 112] | 37.4 | – | –
Cc1c(Cl)cccc1N/C=N/O [Comp. 67] | 48.4 | – | –
CCN(CC)CCOCCOc1ccc(N/C=N/O)cc1 [Comp. 398] | – | – | Inhibition rate (1 μM) (1 μM of the subject compound): 95.2; IC50: 2.4 nM
CCOC(=O)CSc1ccc(N/C=N/O)cc1 [Comp. 440] | – | – | Inhibition rate (1 μM) (1 μM of the subject compound): 102.8
O/N=C/Nc1ccc(F)cc1Cl [Comp. 69] | 58.7 | – | –
CCOC(=O)CCSc1ccc(N/C=N/O)cc1 [Comp. 457] | – | – | Inhibition rate (1 μM) (1 μM of the subject compound): 112.6
O/N=C/Nc1ccc(OC(F)F)cc1 [Comp. 151] | 108.2 | – | –
CCOC(=O)c1ccc(N/C=N/O)cc1 [Comp. 183] | 92.0 | – | –
O/N=C/Nc1ccc(I)cc1Cl [Comp. 73] | 99.9 | – | –
Cc1cc(N/C=N/O)ccc1N1C(=O)c2ccc(Cl)cc2C1=O [Comp. 244] | – | 32.7 | –
COC(=O)c1ccc(N/C=N/O)c(C)c1 [Comp. 199] | – | 85.6 | –
COc1ccc(N/C=N/O)cc1OC [Comp. 78] | 36.3 | – | –
CC(C)(C)c1cccc(N/C=N/O)c1 [Comp. 175] | 69.9 | – | –
O/N=C/Nc1cccc(I)c1 [Comp. 91] | 36.6 | – | –
CC(C)OC(=O)c1ccc(N/C=N/O)cc1 [Comp. 188] | 59.1 | – | –
COC(=O)c1cc(I)ccc1N/C=N/O [Comp. 201] | – | 70.1 | –
O/N=C/Nc1cccc2ccccc12 [Comp. 242] | – | 50.6 | –
CCC(C)CCOc1ccc(N/C=N/O)cc1 (stereo not drawn) [Comp. 326] | – | 110.8 | –
CC(C)CCSc1ccc(N/C=N/O)cc1 [Comp. 443] | – | – | Inhibition rate (1 μM) (1 μM of the subject compound): 103.0
O/N=C/Nc1ccccc1Br [Comp. 75] | 46.9 | – | –
